Measured values from ChEMBL document CHEMBL3616407, “The imidazo[1,2-a]pyridine ring system as a scaffold for potent dual phosphoinositide-3-kinase (PI3K)/mammalian target of rapamycin (mTOR) inhibitors” (Bioorg Med Chem Lett, 2015).

Columns and labels:
Type in all cases: ADME, organism-based
Conditions in all cases: in vivo
[1] = Volume of distribution in iv dosed rat
[2] = AUC in rat at 2 mg/kg, po
[3] = Oral bioavailability in rat at 2 mg/kg
Plasma = assay: Unbound plasma concentration in mouse

COc1ncc(Nc2nc3ccc(C(C)(C)O)cn3c2-c2nc(C)nc(N)n2)cc1F gave a Vd [1] of 4.2 L/kg, an AUC [2] of 640 ng·h/mL and a bioavailability [3] of 51%. For the same molecule, the “Cp(f)” value (Plasma) was 84 nM.
